Data published in ChEMBL document CHEMBL2163295, “Uvaridacols E-H, highly oxygenated antiausterity agents from Uvaria dac” (2012).

Experiments:
[1] = test system: PANC-1; experiment: Cytotoxicity against human PANC1 cells grown in nutrient-deprived medium after 24 hrs by WST8 assay; type: functional
[2] = test system: PANC-1; experiment: Cytotoxicity against human PANC1 cells grown in DMEM medium after 24 hrs by WST8 assay; type: functional

Row | Compound | PC50 [1] | PC50 [2]
1 | COc1cc(C[C@H]2C(=O)OC[C@@H]2Cc2ccc(OC)c(OC)c2)ccc1O [ARCTIGENIN] | 1 µM | –
2 | O=c1[nH]cc(F)c(=O)[nH]1 [FLUOROURACIL] | >200 µM | >200 µM
3 | Nc1ccn([C@@H]2O[C@H](CO)[C@@H](O)C2(F)F)c(=O)n1 [GEMCITABINE] | >200 µM | >200 µM
4 | O=C(OC[C@]1(O)C=C[C@H](O)[C@@H](OC(=O)c2ccccc2)[C@@H]1O)c1ccccc1 [UVARIDACOL E] | 135 µM | –
5 | CC(=O)O[C@@H]1[C@@H](OC(=O)c2ccccc2)[C@@H](O)C=C[C@]1(O)COC(=O)c1ccccc1 [UVARIDACOL F] | 124 µM | –
6 | O=C(OC[C@]1(O)C=C[C@@H](O)[C@H](O)[C@H]1OC(=O)c1ccccc1)c1ccccc1 [UVARIDACOL G] | >200 µM | –
7 | CC(=O)O[C@@H]1[C@@H](O)[C@H](OC(=O)c2ccccc2)C=C[C@@]1(O)COC(=O)c1ccccc1 [UVARIDACOL H] | 156 µM | –
